Experimental data taken from patent US20190119348A1, “PARATHYROID HORMONE RECEPTOR 1 ANTAGONIST AND INVERSE AGONIST POLYPEPTIDES AND METHODS OF THEIR USE” (The General Hospital Corporation, priority 2016, published 2019).
Where a SMILES comes first, the peptide text is derived from it. [ ]: non-standard residue; d: D form. Nle = CCCC[C@H](N)C(=O)O

How the values were obtained:
endogenous hPTHR1 = target: T1, endogenous hPTHR1 (Homo sapiens, UniProt Q03431); assay: Antagonism of PTH(1-34)- and PTHrP(1-36)-induced cAMP response (GloSensor) in SGS-72 cells; format: cell-based; settings: PTH(1-34) 0.3 nM
T1 construct: Saos-2, in which is endogenously expressed the hPTHR1; endogenous in cells
T1 sequence (Q03431 27-593): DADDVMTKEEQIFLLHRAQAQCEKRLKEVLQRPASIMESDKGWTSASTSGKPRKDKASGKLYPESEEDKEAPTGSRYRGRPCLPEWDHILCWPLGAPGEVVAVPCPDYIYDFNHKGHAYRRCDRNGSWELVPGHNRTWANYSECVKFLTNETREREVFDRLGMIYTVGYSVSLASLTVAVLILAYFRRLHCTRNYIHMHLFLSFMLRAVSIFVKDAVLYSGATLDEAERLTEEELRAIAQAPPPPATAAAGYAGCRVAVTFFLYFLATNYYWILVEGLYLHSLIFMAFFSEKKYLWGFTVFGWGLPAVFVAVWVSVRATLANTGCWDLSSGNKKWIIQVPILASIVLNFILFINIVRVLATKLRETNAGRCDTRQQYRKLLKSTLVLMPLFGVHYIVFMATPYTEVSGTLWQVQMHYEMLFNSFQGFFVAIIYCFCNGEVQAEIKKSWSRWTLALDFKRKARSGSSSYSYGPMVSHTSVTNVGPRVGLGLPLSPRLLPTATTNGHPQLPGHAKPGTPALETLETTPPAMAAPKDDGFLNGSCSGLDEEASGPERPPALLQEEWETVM
Experimental: cAMP signaling was assessed in the HEK293-derived or SaOS2-derived cell lines stably expressing the luciferase-based GloSensorTM cAMP reporter ([…] al., Paper presented at: Novel Signaling Mechanisms and Bone Cell Biology 2014; Binkowski et al., Methods in molecular biology. 756:263-271). HEK-293 cells were further transfected to stably express the hPTHR1, hPTHR1-H223R, or hPTHR1-T410P. The cells were seeded into 96-well white plates and were assayed 24 to 48 hours post-confluency. Assays were performed at room temperature in CO2-independent culture media (Life Technologies, Corp., Carlsbad, Calif.) containing 0.1% BSA (CIDB). The cells were pre-loaded with luciferin (0.5 mM in CIDB) for 15 minutes, then PTH peptides were added at varying concentrations. cAMP-dependent luminescence was measured at two-minute intervals using a PerkinElmer Envision plate reader. The time at which maximum luminescence (cps) observed with agonist alone, typically at 10-20 minutes after agonist addition, was used to obtain data from wells containing antagonist with or without agonist, to thus generate antagonist ligand dose-response curves. The resulting cps values were then plotted against ligand concentration using GraphPad Prism 7.0 software and a four-parameter logistics curve fitting equation, which yielded parameters of inhibitory potency (pIC50). Pharmacological properties of the ligands were assessed in cells expressing the PTHR1 and the GloSensorTM cAMP reporter. The assays used GP-2.3 cells, derived from HEK293 cells by stable transfection with the hPTHR1 and GloSensorTM, as well as SGS-72 cells, which are derived from the human osteosarcoma cell line, Saos-2, in which is endogenously expressed the hPTHR1, by stable transfection with GloSensorTM. Binding of representative polypeptides to the PTHR1 was assessed in GP-2.3 cells by radioligand competition methods (FIGS. 1A and 1B, Table 3). […] In Table 5, antagonist assays were performed in SGS-72 cells (SaOS2 cells with stable GloSensorTM cAMP reporter) at room temperature. […] The mean (±sem) concentration of antagonist that inhibited the maximum agonist-induced response observed in the absence of antagonist (at 40 minutes) is reported in units of -log M (pIC50), and the corresponding nanomolar value is shown below each pIC50 value. Data are means of the number of seven experiments. The PTH(1-34)-induced maximum luminescence was 500,000 cps and the basal was 5,000 cps. TMR indicates Lys13 modified at epsilon amino function with TMR. The data are illustrated in FIG. 7A. […] Date are means (±SEM) of the number of separate experiments indicated by n.

PTHR1 = target: T2, PTHR1 (Homo sapiens, UniProt Q03431); assay: Antagonism of PTH(1-34)-induced cAMP response (GloSensor) in GP-2.3 cells; format: cell-based
T2 construct: expressed in transfected cells; host or cells: GP-2.3 (HEK-293 stably transfected with hPTHR1 and GloSensor)
T2 sequence (Q03431 27-593): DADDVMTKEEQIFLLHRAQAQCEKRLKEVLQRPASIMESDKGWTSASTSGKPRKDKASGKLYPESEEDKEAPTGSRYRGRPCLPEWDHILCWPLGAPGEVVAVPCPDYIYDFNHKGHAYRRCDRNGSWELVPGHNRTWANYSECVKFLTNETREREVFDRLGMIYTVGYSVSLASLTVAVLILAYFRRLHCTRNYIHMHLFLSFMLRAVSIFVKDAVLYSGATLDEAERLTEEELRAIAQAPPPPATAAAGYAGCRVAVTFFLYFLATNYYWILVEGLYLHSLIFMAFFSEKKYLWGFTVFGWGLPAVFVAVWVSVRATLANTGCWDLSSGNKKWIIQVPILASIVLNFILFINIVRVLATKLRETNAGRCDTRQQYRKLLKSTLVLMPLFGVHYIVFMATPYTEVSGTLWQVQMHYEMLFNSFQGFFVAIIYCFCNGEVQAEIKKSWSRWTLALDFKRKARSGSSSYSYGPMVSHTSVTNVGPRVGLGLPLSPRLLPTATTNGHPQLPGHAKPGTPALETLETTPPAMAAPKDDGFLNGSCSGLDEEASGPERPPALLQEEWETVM
Experimental: cAMP signaling was assessed in the HEK293-derived or SaOS2-derived cell lines stably expressing the luciferase-based GloSensor™ cAMP reporter (Hattersley et al., Paper presented at: Novel Signaling Mechanisms and Bone Cell Biology 2014; Binkowski et al., Methods in molecular biology. 756:263-271). HEK-293 cells were further transfected to stably express the hPTHR1, hPTHR1-H223R, or hPTHR1-T410P. The cells were seeded into 96-well white plates and were assayed 24 to 48 hours post-confluency. Assays were performed at room temperature in CO2-independent culture media (Life Technologies, Corp., Carlsbad, Calif.) containing 0.1% BSA (CIDB). The cells were pre-loaded with luciferin (0.5 mM in CIDB) for 15 minutes, then PTH peptides were added at varying concentrations. cAMP-dependent luminescence was measured at two-minute intervals using a PerkinElmer Envision plate reader. The time at which maximum luminescence (cps) observed with agonist alone, typically at 10-20 minutes after agonist addition, was used to obtain data from wells containing antagonist with or without agonist, to thus generate antagonist ligand dose-response curves. The resulting cps values were then plotted against ligand concentration using GraphPad Prism 7.0 software and a four-parameter logistics curve fitting equation, which yielded parameters of inhibitory potency (pIC50).
Pharmacological properties of the ligands were assessed in cells expressing the PTHR1 and the GloSensor™ cAMP reporter. The assays used GP-2.3 cells, derived from HEK293 cells by stable transfection with the hPTHR1 and GloSensor™, as well as SGS-72 cells, which are derived from the human osteosarcoma cell line, Saos-2, in which is endogenously expressed the hPTHR1, by stable transfection with GloSensor™. Binding of representative polypeptides to the PTHR1 was assessed in GP-2.3 cells by radioligand competition methods (FIGS. 1A and 1B, Table 3).
[…] concentration of antagonist that inhibited the maximum response to PTH(1-34)-induced in the absence of antagonist (at ˜40 minutes) is reported in units of -log M (pIC50), and the corresponding nanomolar value is shown below each pIC50 value. Data are means of the number of experiments indicated (n). The PTH(1-34)-induced maximum luminescence was ˜80,000 cps and the basal was ˜1,000 cps. TMR indicates Lys13 modified at epsilon amino function with TMR, P vs. inhibition by dW12,Y34-bPTH(7-34).

SMILES | IC50 (endogenous hPTHR1; IC50 PTH(1-34) (Table 6, nanomolar value), antagonist pre-treatment 15 minutes) | IC50 (PTHR1; inhibition of PTH(1-34)-induced maximum response, read-out: corresponding nanomolar value of pIC50 (Table 4) (converted)) | PTH(1-34)-induced maximum luminescence (endogenous hPTHR1; basal ~5,000 cps) | PTH(1-34)-induced maximum luminescence (PTHR1; basal ~1,000 cps)
CCCC[C@H](NC(=O)[C@H](CC(C)C)NC(=O)[C@H](CCC(N)=O)NC(=O)[C@@H](N)[C@@H](C)CC)C(=O)N[C@@H](Cc1c[nH]cn1)C(=O)N[C@@H](CCC(N)=O)C(=O)N[C@@H](CCCNC(=N)N)C(=O)N[C@H](Cc1c[nH]c2ccccc12)C(=O)N[C@@H](CCCCN)C(=O)N[C@@H](Cc1c[nH]c2ccccc12)C(=O)N[C@H](C(=O)N[C@@H](CCC(N)=O)C(=O)N[C@@H](CC(=O)O)C(=O)N[C@@H](C)C(=O)N[C@@H](CCCNC(=N)N)C(=O)N[C@@H](CCCNC(=N)N)C(=O)N[C@@H](CCCNC(=N)N)C(=O)N[C@@H](C)C(=O)N[C@@H](Cc1c[nH]c2ccccc12)C(=O)N[C@@H](CC(C)C)C(=O)N[C@@H](Cc1c[nH]cn1)C(=O)N[C@@H](CCCCN)C(=O)N[C@@H](CC(C)C)C(=O)N[C@H](C(=O)N[C@@H](C)C(=O)N[C@@H](CCC(=O)O)C(=O)N[C@H](C(=O)N[C@@H](Cc1c[nH]cn1)C(=O)N[C@H](C(=O)N[C@@H](C)C(=O)N[C@@H](CCC(=O)O)C(=O)N[C@H](C(=O)N[C@@H](CS)C(N)=O)[C@@H](C)CC)[C@@H](C)O)[C@@H](C)CC)[C@@H](C)CC)[C@@H](C)CC [compound 1974, Nle8, dW12, W23, C37-LA-PTH(5-37)] (H-IQL[Nle]HQR[dW]KWIQDARRRAWLHKLIAEIHTAEIC-NH2; N-terminus assumed) | 4.39 nM | 224 nM | – | –
CC[C@H](C)[C@H](NC(=O)[C@H](CCC(=O)O)NC(=O)[C@H](CO)NC(=O)[C@@H](NC(=O)[C@@H](N)CO)C(C)C)C(=O)N[C@@H](CCC(N)=O)C(=O)N[C@@H](CC(C)C)C(=O)N[C@@H](CCSC)C(=O)N[C@@H](Cc1c[nH]cn1)C(=O)N[C@@H](CC(N)=O)C(=O)N[C@@H](CC(C)C)C(=O)NCC(=O)N[C@@H](CCCCN)C(=O)N[C@@H](Cc1c[nH]cn1)C(=O)N[C@@H](CC(C)C)C(=O)N[C@@H](CC(N)=O)C(=O)N[C@@H](CO)C(=O)N[C@@H](CCSC)C(=O)N[C@@H](CCC(=O)O)C(=O)N[C@@H](CCCNC(=N)N)C(=O)N[C@H](C(=O)N[C@@H](CCC(=O)O)C(=O)N[C@@H](Cc1c[nH]c2ccccc12)C(=O)N[C@@H](CC(C)C)C(=O)N[C@@H](CCCNC(=N)N)C(=O)N[C@@H](CCCCN)C(=O)N[C@@H](CCCCN)C(=O)N[C@@H](CC(C)C)C(=O)N[C@@H](CCC(N)=O)C(=O)N[C@@H](CC(=O)O)C(=O)N[C@H](C(=O)N[C@@H](Cc1c[nH]cn1)C(=O)N[C@@H](CC(N)=O)C(=O)N[C@@H](Cc1ccccc1)C(N)=O)C(C)C)C(C)C [compound 1923, PTH(1-34), reference compound] | – | – | ~500,000 cps | ~80,000 cps
